Assays:
Assay type in all cases: in vivo
[1] = test system: B6 mice; assay: Intraperitoneal glucose tolerance test (IPGTT) in high-fat diet mice; details: for AUC of IPGTT: 2 g/kg glucose IP, blood glucose vs. time, 4 weeks of administration; for effect on sugar tolerance (IPGTT, in words): single test compound
Procedure: The experimental animals employed were B6 mice. The number of test animals in each group of the pre-test was four or more, and the number of test animals in each group of the confirmation test was twelve or more. […] After the animals were purchased from Lesco Biotech Co., Ltd. (Taipei) and housed at the National Defense Animal Center, the animal experiments were conducted following the Experimental Guide of National Health Research Institute. First, the animals were fed with 3-5 grams of general diet daily, and the water was supplied infinitely. After 1 to 2 weeks of breeding, the healthy state was observed. The body weight was recorded once a week.
The test animals were randomly grouped into blank control (Blank), high-fat control (HFD), positive control (PS), and test group.
(§1) The blank control was fed with a normal diet arbitrarily for 12 weeks. The high-fat control, the positive control, and the test group were fed with a high-fat diet arbitrarily for 12 weeks. After 8 weeks of feeding, the blank control and the high-fat control were tube fed with deionized water once a day. The positive control was tube fed with silymarin once a day. The test group was tube fed with test compound(s) once a day for 4 weeks.
1.4.3 Analysis of Biochemical Functions of the Pancreas: Intraperitoneal Glucose Tolerance Test (IPGTT)
The mice were moved into a clean cage and fasted overnight. There was no food or feces at the feeding funnel or the bottom of the clean cage to ensure that the animals may get drinking water at all times. The body weight of the mice was measured, and the volume of the glucose solution required for intraperitoneone (IP) injection was calculated (based on a concentration of 250 mg/mL and 2 g of glucose per kg of mouse weight, the volume (μl) required would be 8× body weight (g)). The mice were moved out and injected intraperitoneally with an appropriate amount of glucose solution, and the injection time was recorded. Blood samples were taken from the tail of the mice at 0, 15, 30, 60, 120 and 150 minutes after the glucose solution was injected. The concentration of blood glucose was measured, and the blood glucose analysis was performed using the Roche's ACCU-CHEK Active blood glucose meter.
(§2) All data were expressed as mean±standard deviation (SD), and the test results were calculated using the ANOVA test method to determine whether there was a statistically significant difference by using the Statistical Package of the Social Science program (Version 13, SPSS Inc.) software package. Subsequently, post hoc test least significant difference method was used to perform multiple comparisons to confirm the significant differences between the groups. The significant difference between the averages of the groups was p<0.05.

[2] = test system: B6 mice; assay: Serum (plasma) triglyceride (TG) in high-fat diet mice; details: for TG (plasma triglyceride): 4 weeks of administration
Procedure: (§3) The experimental animals employed were B6 mice. The number of test animals in each group of the pre-test was four or more, and the number of test animals in each group of the confirmation test was twelve or more. Male mice having a weight of 18 to 23 g were bred in an animal room with a normal light and dark cycle (7:00 am to 7:00 pm being the bright period, and the rest being the dark period) at a temperature of 23±2° C. and a relative humidity of 55±15%. After the animals were purchased from Lesco Biotech Co., Ltd. (Taipei) and housed at the National Defense Animal Center, the animal experiments were conducted following the Experimental Guide of National Health Research Institute. First, the animals were fed with 3-5 grams of general diet daily, and the water was supplied infinitely. After 1 to 2 weeks of breeding, the healthy state was observed. The body weight was recorded once a week.
(§4) The test animals were randomly grouped into blank control (Blank), high-fat control (HFD), positive control (PS), and test group. The blank control was given a normal diet; the high-fat control was given a high-fat diet; the positive control was given a high-fat diet and tube fed with silymarin (5 mg/kg/day) (Iranian Journal of Pharmaceutical Research (2016), 15 (3): 493-500; Life Sciences 75 (2004) 2167-2180; and Pharm Biol. 2016 Jul. 8:1-6); and the test group was given a high-fat diet and tube fed with the test ingredient individually.
as §1
Before the start of the test and at the 8th and 12th week after the start of the test, blood was collected from the cheek or heart. All the animals were weighed and then sacrificed at the end of the test, and blood was collected from the cheek or heart again. The blood samples of mice were allowed to stand at room temperature for 1 hour to coagulate, and then centrifuged at 15,700×g by a frozen centrifuge at 4° C. for 5 minutes to separate the serum.
1.4.1 Analysis of Serum Triglyceride (TG) and Total Cholesterol (TCHO, TC)
Triglyceride (TG) and total cholesterol (TCHO, TC) in the serum were measured by the automatic blood biochemical analyzer.
as §2

[3] = test system: B6 mice; assay: Triglyceride (TG) and total cholesterol (TC) in pancreatic tissue of high-fat diet mice; details: 4 weeks of administration
Procedure: as §3, §4, §1
1.4.6 Analysis of Triglyceride (TG) and Total Cholesterol (TCHO, TC) in Pancreatic Tissue
After the mice were sacrificed, the pancreas was taken out and weighed to compare the ratios of pancreas weight to body weight. The remaining pancreas was frozen and preserved, and the contents of triglyceride and the total cholesterol in the pancreas were measured.
as §2

[4] = test system: B6 mice; assay: Fasting insulin concentration (ELISA) in high-fat diet mice; details: for fasting insulin concentration: 4 weeks of administration; for effect on fasting insulin concentration (in words): single test compound
Procedure: as §3, §4, §1
1.4.4 Analysis of Biochemical Functions of the Pancreas: Analysis of Fasting Insulin Concentration
At the end of the test (at the twelfth week), the mice were fasted to collect the blood following the operation instructions of the mouse ultrasensitive insulin ELISA kit (ALPCO).
as §2

[5] = test system: B6 mice; assay: Homeostasis model assessment of insulin resistance (HOMA-IR) in high-fat diet mice; details: for HOMA-IR: 4 weeks of administration; for effect on insulin resistance (in words): single test compound
Procedure: as §3, §4, §1
1.4.5 Analysis of Biochemical Functions of the Pancreas: Homeostasis Model Assessment of Insulin Resistance (HOMA-IR)
The mice were fasted to collect the blood at the end of the test (at the twelfth week), and the concentrations of blood glucose and insulin were measured and calculated according to the following formula: […]
as §2

[6] = test system: B6 mice; assay: Blood glucose analysis (GLU) in high-fat diet mice; details: for GLU: fasted overnight, 4 weeks of administration; for effect on GLU (in words): single test compound
Procedure: as §3, §4, §1
1.4.2 Analysis of Biochemical Functions of the Pancreas: Blood Glucose Analysis (GLU)
Blood glucose analysis was performed with Roche's ACCU-CHEK Active blood glucose meter. One day before blood collection, mice were fasted overnight. The code card of the blood glucose test paper was inserted into the blood glucose meter, and then the blood glucose test paper was inserted. After the blood drop pattern appeared on the meter, a drop of blood was taken from in vein at the cheek of the mouse with a buccal needle and then dropped into the blood glucose test paper. The blood glucose data shown on the blood glucose meter were recorded.
as §2

O=C1C[C@@H](c2ccc(O)c(O)c2)Oc2cc(O)cc(O)c21 [eriodictyol]
AUC of IPGTT ([1]; 2.5 mg/kg): 41.9 ± 5.9 g·h/dL
effect on sugar tolerance (IPGTT, in words) [1]: significantly reduce
TG (plasma triglyceride) ([2]; 2.5 mg/kg): 135.4 ± 43.4 mg/dL
TG (plasma triglyceride) ([2]; 5.0 mg/kg): 143.2 ± 15.1 mg/dL
effect on triglyceride in plasma (in words) ([2]; as compared with the high-fat control): significantly reduce
pancreatic TC ([3]; 2.5 mg/kg tube fed once a day): 3.5 ± 0.6 mg/g pancreatic tissue
pancreatic TG ([3]; 2.5 mg/kg tube fed once a day): 4.5 ± 2.8 mg/g pancreatic tissue
fasting insulin concentration ([4]; 2.5 mg/kg): 1.1 ± 0.4 ng/mL
effect on fasting insulin concentration (in words) [4]: significantly reduce
HOMA-IR ([5]; 2.5 mg/kg): 0.6 ± 0.2
effect on insulin resistance (in words) [5]: significantly reduce
GLU ([6]; 2.5 mg/kg): 219.0 ± 35.6 mg/dL

COc1ccc([C@@H]2CC(=O)c3c(O)cc(O)cc3O2)cc1O [hesperitin]
TG (plasma triglyceride) ([2]; 2.5 mg/kg): 190.1 ± 25.9 mg/dL
pancreatic TC ([3]; 2.5 mg/kg tube fed once a day): 4.4 ± 0.7 mg/g pancreatic tissue
pancreatic TG ([3]; 2.5 mg/kg tube fed once a day): 5.7 ± 1.6 mg/g pancreatic tissue

OC[C@@H](O)[C@@H](O)[C@H](O)[C@H](O)CO [mannitol]
AUC of IPGTT ([1]; 1.5 mg/kg): 42.7 ± 1.7 g·h/dL
effect on sugar tolerance (IPGTT, in words) [1]: significantly reduce
TG (plasma triglyceride) ([2]; 1.5 mg/kg): 158.9 ± 48.9 mg/dL
TG (plasma triglyceride) ([2]; 4.5 mg/kg): 180.1 ± 46.7 mg/dL
TG (plasma triglyceride) ([2]; 7.5 mg/kg): 163.9 ± 31.9 mg/dL
pancreatic TC ([3]; 1.5 mg/kg tube fed once a day): 3.7 ± 1.0 mg/g pancreatic tissue
pancreatic TG ([3]; 1.5 mg/kg tube fed once a day): 12.6 ± 7.5 mg/g pancreatic tissue
pancreatic TC ([3]; 4.5 mg/kg tube fed once a day): 3.3 ± 0.7 mg/g pancreatic tissue
pancreatic TG ([3]; 4.5 mg/kg tube fed once a day): 9.6 ± 5.1 mg/g pancreatic tissue
pancreatic TC ([3]; 7.5 mg/kg tube fed once a day): 3.1 ± 0.3 mg/g pancreatic tissue
pancreatic TG ([3]; 7.5 mg/kg tube fed once a day): 4.7 ± 4.0 mg/g pancreatic tissue
fasting insulin concentration ([4]; 1.5 mg/kg): 1.1 ± 0.4 ng/mL
effect on fasting insulin concentration (in words) [4]: significantly reduce
HOMA-IR ([5]; 1.5 mg/kg): 0.3 ± 0.1
effect on insulin resistance (in words) [5]: significantly reduce
GLU ([6]; 1.5 mg/kg): 112.2 ± 32.0 mg/dL
effect on GLU (in words) [6]: significantly reduce

CC1CCC(C(C)C)C(O)C1 (centres unmarked) [menthol]
AUC of IPGTT ([1]; 1.5 mg/kg): 45.6 ± 4.8 g·h/dL
effect on sugar tolerance (IPGTT, in words) [1]: significantly reduce
TG (plasma triglyceride) ([2]; 1.5 mg/kg): 173.7 ± 56.7 mg/dL
pancreatic TC ([3]; 1.5 mg/kg tube fed once a day): 4.4 ± 0.9 mg/g pancreatic tissue
pancreatic TG ([3]; 1.5 mg/kg tube fed once a day): 18.1 ± 18.3 mg/g pancreatic tissue
fasting insulin concentration ([4]; 1.5 mg/kg): 1.2 ± 0.8 ng/mL
effect on fasting insulin concentration (in words) [4]: significantly reduce
HOMA-IR ([5]; 1.5 mg/kg): 0.4 ± 0.4
effect on insulin resistance (in words) [5]: significantly reduce
GLU ([6]; 1.5 mg/kg): 125.7 ± 33.5 mg/dL
effect on GLU (in words) [6]: significantly reduce

O=C(CCc1ccc(O)cc1)c1c(O)cc(O)cc1O[C@@H]1O[C@H](CO)[C@@H](O)[C@H](O)[C@H]1O [phloridzin]
AUC of IPGTT ([1]; 2.5 mg/kg): 51.3 ± 8.9 g·h/dL
TG (plasma triglyceride) ([2]; 2.5 mg/kg): 148.3 ± 31.4 mg/dL
pancreatic TC ([3]; 2.5 mg/kg tube fed once a day): 3.3 ± 1.1 mg/g pancreatic tissue
pancreatic TG ([3]; 2.5 mg/kg tube fed once a day): 23.3 ± 24.0 mg/g pancreatic tissue
fasting insulin concentration ([4]; 2.5 mg/kg): 1.1 ± 0.3 ng/mL
HOMA-IR ([5]; 2.5 mg/kg): 0.6 ± 0.2
GLU ([6]; 2.5 mg/kg): 216.2 ± 26.4 mg/dL

O=c1c(-c2ccc(O)cc2)coc2c([C@@H]3O[C@H](CO)[C@@H](O)[C@H](O)[C@H]3O)c(O)ccc12 [puerarin]
AUC of IPGTT ([1]; 2.5 mg/kg): 45.1 ± 11.2 g·h/dL
effect on sugar tolerance (IPGTT, in words) [1]: significantly reduce
TG (plasma triglyceride) ([2]; 2.5 mg/kg): 166.7 ± 22.0 mg/dL
pancreatic TC ([3]; 2.5 mg/kg tube fed once a day): 4.0 ± 1.2 mg/g pancreatic tissue
pancreatic TG ([3]; 2.5 mg/kg tube fed once a day): 17.3 ± 13.4 mg/g pancreatic tissue
fasting insulin concentration ([4]; 2.5 mg/kg): 0.9 ± 0.3 ng/mL
effect on fasting insulin concentration (in words) [4]: significantly reduce
HOMA-IR ([5]; 2.5 mg/kg): 0.4 ± 0.2
effect on insulin resistance (in words) [5]: significantly reduce
GLU ([6]; 2.5 mg/kg): 172.3 ± 22.2 mg/dL

O=C1NS(=O)(=O)c2ccccc21 [saccharin]
AUC of IPGTT ([1]; 1.5 mg/kg): 41.9 ± 6.2 g·h/dL
effect on sugar tolerance (IPGTT, in words) [1]: significantly reduce
TG (plasma triglyceride) ([2]; 1.5 mg/kg): 142.6 ± 34.6 mg/dL
pancreatic TC ([3]; 1.5 mg/kg tube fed once a day): 3.0 ± 0.8 mg/g pancreatic tissue
pancreatic TG ([3]; 1.5 mg/kg tube fed once a day): 4.7 ± 2.9 mg/g pancreatic tissue
fasting insulin concentration ([4]; 1.5 mg/kg): 1.3 ± 1.1 ng/mL
effect on fasting insulin concentration (in words) [4]: significantly reduce
HOMA-IR ([5]; 1.5 mg/kg): 0.3 ± 0.3
effect on insulin resistance (in words) [5]: significantly reduce
GLU ([6]; 1.5 mg/kg): 92.0 ± 9.6 mg/dL
effect on GLU (in words) [6]: significantly reduce

Reference: patent publication US20180325840A1, “COMPOSITIONS AND METHODS FOR PREVENTING OR TREATING FATTY PANCREAS OR AMELIORATING PANCREAS DISEASES CAUSED BY FATTY PANCREAS, DIABETES MELLITUS OR OTHER RELATED DISORDERS” (NATIONAL DEFENSE EDUCATION AND RESEARCH FOUNDATION, priority 2015, published 2018)
